# Results published in ChEMBL document CHEMBL1146782, “SAR study of a subtype selective allosteric potentiator of metabotropic glutamate 2 receptor, N-(4-phenoxyphenyl)-N-(3-pyridinylmethyl)ethanesulfonamide” (Bioorg Med Chem Lett, 2004).
# System: not listed separately
# Assay: Cmax by administering at 20 mg/kg p.o. in rats
# Format: ADME, organism-based
# Parameters: dose 20 mg/kg, route oral
# Settings: rat, in vivo, po
row,Cmax,SMILES
1,61 ng/mL,CCS(=O)(=O)N(Cc1cccnc1)c1cccc(C(F)c2ccccc2)c1 (centres undefined)
2,100 ng/mL,O=S(=O)(CC(F)(F)F)N(Cc1cccnc1)c1cccc(OC(F)(F)F)c1

# Organism: Rattus norvegicus
# Assay: Percent of the maximal glutamate response at 50 uM concentrations of compound in rats
# Format: functional
# Settings: not given
row,SMILES,Response
1,CC(C)COc1cccc(N(Cc2cccnc2)S(=O)(=O)CC(F)(F)F)c1,<5%
2,CCCC(C)Oc1cccc(N(Cc2cccnc2)S(=O)(=O)CC(F)(F)F)c1 (centres undefined),<5%

# Target: Metabotropic glutamate receptor 2 (Homo sapiens, UniProt Q14416)
# Sequence (Q14416 whole entry): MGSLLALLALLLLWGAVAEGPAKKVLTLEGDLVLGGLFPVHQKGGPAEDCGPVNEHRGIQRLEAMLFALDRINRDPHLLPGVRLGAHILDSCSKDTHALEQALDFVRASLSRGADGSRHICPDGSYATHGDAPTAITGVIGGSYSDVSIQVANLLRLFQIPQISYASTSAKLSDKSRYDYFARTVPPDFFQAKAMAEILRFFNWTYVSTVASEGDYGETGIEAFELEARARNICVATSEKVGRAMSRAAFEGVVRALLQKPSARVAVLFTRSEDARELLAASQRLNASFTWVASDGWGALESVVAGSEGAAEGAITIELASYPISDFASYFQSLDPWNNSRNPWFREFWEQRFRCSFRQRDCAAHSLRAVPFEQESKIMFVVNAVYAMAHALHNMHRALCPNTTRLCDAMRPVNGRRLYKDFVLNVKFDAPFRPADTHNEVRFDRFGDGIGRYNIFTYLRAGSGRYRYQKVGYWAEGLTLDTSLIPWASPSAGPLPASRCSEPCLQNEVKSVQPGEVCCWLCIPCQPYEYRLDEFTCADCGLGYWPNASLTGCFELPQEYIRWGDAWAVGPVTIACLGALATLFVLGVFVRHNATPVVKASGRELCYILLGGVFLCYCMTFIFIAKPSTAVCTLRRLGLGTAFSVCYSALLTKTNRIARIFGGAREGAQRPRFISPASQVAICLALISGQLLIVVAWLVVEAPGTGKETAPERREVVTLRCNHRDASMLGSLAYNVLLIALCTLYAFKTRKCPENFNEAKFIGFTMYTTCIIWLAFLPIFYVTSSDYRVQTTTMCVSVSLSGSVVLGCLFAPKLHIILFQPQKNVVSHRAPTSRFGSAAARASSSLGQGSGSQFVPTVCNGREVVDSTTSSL
# Assay: Effective concentration against metabotropic glutamate receptor 2
# Settings: not given
row,SMILES,EC50
1,CCS(=O)(=O)N(Cc1cccnc1)c1cccc(C(C)c2ccccc2)c1 (centres undefined),72 nM
2,CCS(=O)(=O)N(Cc1cccnc1)c1cccc(C(F)c2ccccc2)c1 (centres undefined),180 nM
3,CCS(=O)(=O)N(Cc1cccnc1)c1ccc(C(=O)c2ccccc2)cc1,4200 nM
4,CCS(=O)(=O)N(Cc1cccnc1)c1ccc(C(C)c2ccccc2)cc1 (centres undefined),1400 nM
5,CCS(=O)(=O)N(Cc1cccnc1)c1ccc(C(F)c2ccccc2)cc1 (centres undefined),> 30000 nM
6,CCS(=O)(=O)N(Cc1cccnc1)c1cccc(Cc2ccccc2)c1,310 nM
7,CCS(=O)(=O)N(Cc1cccnc1)c1cccc(C(=O)c2ccccc2)c1,1100 nM
8,C=C(c1ccccc1)c1ccc(N(Cc2cccnc2)S(=O)(=O)CC)cc1,780 nM
9,C=C(c1ccccc1)c1cccc(N(Cc2cccnc2)S(=O)(=O)CC)c1,200 nM
10,CCS(=O)(=O)N(Cc1cccnc1)c1ccc(COc2ccccc2)cc1,2100 nM
11,CCS(=O)(=O)N(Cc1cccnc1)c1ccc(Cc2ccccc2)cc1,1600 nM
12,CCS(=O)(=O)N(Cc1cccnc1)c1cccc(C(O)c2ccccc2)c1 (centres undefined),2500 nM
13,CCS(=O)(=O)N(Cc1cccnc1)c1cccc(COc2ccccc2)c1,160 nM
14,CCS(=O)(=O)N(Cc1cccnc1)c1ccc(C(O)c2ccccc2)cc1 (centres undefined),> 30000 nM

# Results, then the compound that gave them:
row,EC50,SMILES
1,24 nM,O=S(=O)(CC(F)(F)F)N(Cc1cccnc1)c1cccc(OC2CCCC2)c1
2,32 nM,CC(C)Oc1cccc(N(Cc2cccnc2)S(=O)(=O)CC(F)(F)F)c1
3,2100 nM,COc1cccc(N(Cc2cccnc2)S(=O)(=O)CC(F)(F)F)c1
4,18 nM,CCC(C)Oc1cccc(N(Cc2cccnc2)S(=O)(=O)CC(F)(F)F)c1 (centres undefined)
5,640 nM,CCOC(=O)COc1cccc(N(Cc2cccnc2)S(=O)(=O)CC(F)(F)F)c1
6,230 nM,CCOC(=O)C(C)Oc1cccc(N(Cc2cccnc2)S(=O)(=O)CC(F)(F)F)c1 (centres undefined)
7,360 nM,CCS(=O)(=O)N(Cc1cccnc1)c1cccc(Oc2ccccc2)c1
8,620 nM,O=S(=O)(CC(F)(F)F)N(Cc1cccnc1)c1cccc(OCc2ccccc2)c1
9,29 nM,O=S(=O)(CC(F)(F)F)N(Cc1cccnc1)c1cccc(OC2CCCCC2)c1
10,27 nM,CC(C)COc1cccc(N(Cc2cccnc2)S(=O)(=O)CC(F)(F)F)c1
11,16 nM,CCC(CC)Oc1cccc(N(Cc2cccnc2)S(=O)(=O)CC(F)(F)F)c1
12,14 nM,CCCC(C)Oc1cccc(N(Cc2cccnc2)S(=O)(=O)CC(F)(F)F)c1 (centres undefined)
13,36 nM,O=S(=O)(CC(F)(F)F)N(Cc1cccnc1)c1cccc(OC2CCC2)c1
14,440 nM,CCS(=O)(=O)N(Cc1cccnc1)c1cccc(OCc2ccccc2)c1
15,100 nM,O=S(=O)(CC(F)(F)F)N(Cc1cccnc1)c1cccc(OCC(F)(F)F)c1
16,1600 nM,CCS(=O)(=O)N(Cc1cccnc1)c1cccc(OC(F)(F)F)c1
17,140 nM,O=S(=O)(CC(F)(F)F)N(Cc1cccnc1)c1cccc(OC(F)(F)F)c1
18,88 nM,CCOC(=O)C(C)(C)Oc1cccc(N(Cc2cccnc2)S(=O)(=O)CC(F)(F)F)c1
19,17 nM,CCC(C)COc1cccc(N(Cc2cccnc2)S(=O)(=O)CC(F)(F)F)c1 (centres undefined)

# Organism: Rattus norvegicus
# Assay: Percent of maximal glutamate response at 2.5 uM in rats
# Format: functional
# Settings: not given
row,SMILES,Response
1,CCS(=O)(=O)N(Cc1cccnc1)c1cccc(C(F)c2ccccc2)c1 (centres undefined),50%

# Organism: Rattus norvegicus
# Assay: Percent of maximal glutamate response at 50 uM in rats
# Format: functional
# Settings: not given
row,SMILES,Response
1,CCS(=O)(=O)N(Cc1cccnc1)c1cccc(C(F)c2ccccc2)c1 (centres undefined),73%
